Experimental data taken from ChEMBL document CHEMBL1201862, “PubChem BioAssay data set” (2004).
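These data come from cells grown in 96-well plates and exposed to compound for 48 hours at five concentrations. GI50 is the concentration that inhibits growth by half.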 Active and inactive are the calls of the source. Rule as the data show it: active = GI50 up to about 1.1 µM and inactive = higher.

Tests used:
Experiment in all cases: inhibition of tumour cell growth, NCI panel, 48 h
786-0 = test system: 786-0
A549 = test system: A549
ACHN = test system: ACHN
CAKI-1 = test system: CAKI-1
CCRF-CEM = test system: CCRF-CEM
COLO 205 = test system: COLO 205
DLD-1 = test system: DLD-1
DMS-114 = test system: DMS-114
DMS-273 = test system: DMS-273
EKVX = test system: EKVX
HCC 2998 = test system: HCC 2998
HCT-116 = test system: HCT-116
HCT-15 = test system: HCT-15
HL-60 = test system: HL-60
HOP-18 = test system: HOP-18
HOP-62 = test system: HOP-62
HOP-92 = test system: HOP-92
HT-29 = test system: HT-29
IGROV-1 = test system: IGROV-1
K562 = test system: K562
KM-20L2 = test system: KM-20L2
KM12 = test system: KM12
LOX IMVI = test system: LOX IMVI
LXFL 529 = test system: LXFL 529
M14 = test system: M14
M19-MEL = test system: M19-MEL
Malme-3M = test system: Malme-3M
NCI-H226 = test system: NCI-H226
NCI-H23 = test system: NCI-H23
NCI-H460 = test system: NCI-H460
NCI-H522 = test system: NCI-H522
OVCAR-3 = test system: OVCAR-3
OVCAR-4 = test system: OVCAR-4
OVCAR-8 = test system: OVCAR-8
RPMI-8226 = test system: RPMI-8226
RXF 393 = test system: RXF 393
SF-268 = test system: SF-268
SF-295 = test system: SF-295
SF-539 = test system: SF-539
SK-MEL-28 = test system: SK-MEL-28
SK-MEL-2 = test system: SK-MEL-2
SK-MEL-5 = test system: SK-MEL-5
SK-OV-3 = test system: SK-OV-3
SN12C = test system: SN12C
SNB-19 = test system: SNB-19
SNB-78 = test system: SNB-78
SR = test system: SR
SW-620 = test system: SW-620
TK-10 = test system: TK-10
U-251 = test system: U-251
UACC-62 = test system: UACC-62
UO-31 = test system: UO-31
XF498 = test system: XF498
A498 = test system: A498
MOLT-4 = test system: MOLT-4
OVCAR-5 = test system: OVCAR-5
SNB-75 = test system: SNB-75
UACC-257 = test system: UACC-257

With `CC(C)C(CCOS(=O)(=O)O)CCC(C)[C@H]1[C@@H](O)C(O)C2[C@]3(O)C[C@@H](O)C4(O)C[C@@H](O)CC[C@]4(C)C3CC[C@@]21C` (some centres not stated) the GI50 (786-0) was > 100 µM (inactive), the GI50 (A549) was > 100 µM (inactive) and the GI50 (ACHN) was > 100 µM (inactive). The GI50 (CAKI-1) was > 100 µM (inactive), the GI50 (CCRF-CEM) was > 100 µM (inactive) and the GI50 (COLO 205) was > 100 µM (inactive). The GI50 (DLD-1) was > 100 µM (inactive), the GI50 (DMS-114) was > 100 µM (inactive) and the GI50 (DMS-273) was > 100 µM (inactive). For the same compound, the GI50 (EKVX) was > 100 µM (inactive), the GI50 (HCC 2998) was > 100 µM (inactive) and the GI50 (HCT-116) was > 100 µM (inactive). The GI50 (HCT-15) was over 100 µM, the GI50 (HL-60) was > 100 µM (inactive) and the GI50 (HOP-18) was > 100 µM (inactive). For the same compound, the GI50 (HOP-62) was > 100 µM (inactive), the GI50 (HOP-92) was > 100 µM (inactive) and the GI50 (HT-29) was > 100 µM (inactive). The GI50 (IGROV-1) was > 100 µM (inactive), the GI50 (K562) was > 100 µM (inactive) and the GI50 (KM-20L2) was > 100 µM (inactive). For the same compound, the GI50 (KM12) was > 100 µM (inactive), the GI50 (LOX IMVI) was > 100 µM (inactive) and the GI50 (LXFL 529) was > 100 µM (inactive). The GI50 (M14) was > 100 µM (inactive), the GI50 (M19-MEL) was > 100 µM (inactive) and the GI50 (Malme-3M) was > 100 µM (inactive). The GI50 (NCI-H226) was > 100 µM (inactive), the GI50 (NCI-H23) was > 100 µM (inactive) and the GI50 (NCI-H460) was > 100 µM (inactive). The GI50 (NCI-H522) was > 100 µM (inactive), the GI50 (OVCAR-3) was > 100 µM (inactive) and the GI50 (OVCAR-4) was > 100 µM (inactive). The GI50 (OVCAR-8) was > 100 µM (inactive), the GI50 (RPMI-8226) was > 100 µM (inactive) and the GI50 (RXF 393) was > 100 µM (inactive). For the same compound, the GI50 (SF-268) was > 100 µM (inactive), the GI50 (SF-295) was > 100 µM (inactive) and the GI50 (SF-539) was > 100 µM (inactive). For the same compound, the GI50 (SK-MEL-28) was > 100 µM (inactive), the GI50 (SK-MEL-2) was > 100 µM (inactive) and the GI50 (SK-MEL-5) was > 100 µM (inactive). The GI50 (SK-OV-3) was > 100 µM (inactive), the GI50 (SN12C) was > 100 µM (inactive) and the GI50 (SNB-19) was > 100 µM (inactive). The GI50 (SNB-78) was > 100 µM (inactive), the GI50 (SR) was > 100 µM (inactive) and the GI50 (SW-620) was > 100 µM (inactive). The GI50 (TK-10) was > 100 µM (inactive), the GI50 (U-251) was > 100 µM (inactive) and the GI50 (UACC-62) was > 100 µM (inactive). The GI50 (UO-31) was > 100 µM (inactive) and the GI50 (XF498) was > 100 µM (inactive).

With `Cc1c(O)c(=O)ccn1CCO` the GI50 (786-0) was > 100 µM (inactive), the GI50 (A498) was > 100 µM (inactive) and the GI50 (A549) was > 100 µM (inactive). The GI50 (ACHN) was > 100 µM (inactive), the GI50 (CAKI-1) was > 100 µM (inactive) and the GI50 (CCRF-CEM) was > 100 µM (inactive). For the same compound, the GI50 (COLO 205) was > 100 µM (inactive), the GI50 (DLD-1) was > 100 µM (inactive) and the GI50 (DMS-114) was > 100 µM (inactive). The GI50 (DMS-273) was > 10 µM (inactive), the GI50 (EKVX) was > 100 µM (inactive) and the GI50 (HCT-116) was > 100 µM (inactive). For the same compound, the GI50 (HCT-15) was over 100 µM, the GI50 (HL-60) was > 100 µM (inactive) and the GI50 (HOP-18) was > 100 µM (inactive). The GI50 (HOP-62) was > 100 µM (inactive), the GI50 (HOP-92) was > 100 µM (inactive) and the GI50 (HT-29) was > 100 µM (inactive). The GI50 (K562) was > 100 µM (inactive), the GI50 (KM-20L2) was > 100 µM (inactive) and the GI50 (KM12) was > 100 µM (inactive). For the same compound, the GI50 (LOX IMVI) was > 100 µM (inactive), the GI50 (LXFL 529) was > 100 µM (inactive) and the GI50 (M14) was > 100 µM (inactive). For the same compound, the GI50 (M19-MEL) was > 100 µM (inactive), the GI50 (MOLT-4) was > 100 µM (inactive) and the GI50 (Malme-3M) was > 100 µM (inactive). For the same compound, the GI50 (NCI-H226) was > 100 µM (inactive), the GI50 (NCI-H460) was > 100 µM (inactive) and the GI50 (NCI-H522) was > 100 µM (inactive). For the same compound, the GI50 (OVCAR-3) was > 100 µM (inactive), the GI50 (OVCAR-4) was > 100 µM (inactive) and the GI50 (OVCAR-5) was > 100 µM (inactive). For the same compound, the GI50 (OVCAR-8) was > 100 µM (inactive), the GI50 (RPMI-8226) was > 100 µM (inactive) and the GI50 (RXF 393) was > 100 µM (inactive). For the same compound, the GI50 (SF-268) was > 100 µM (inactive), the GI50 (SF-295) was > 100 µM (inactive) and the GI50 (SK-MEL-28) was > 100 µM (inactive). The GI50 (SK-MEL-2) was > 100 µM (inactive), the GI50 (SK-MEL-5) was > 100 µM (inactive) and the GI50 (SK-OV-3) was > 100 µM (inactive). The GI50 (SN12C) was > 100 µM (inactive), the GI50 (SNB-19) was > 100 µM (inactive) and the GI50 (SNB-75) was > 100 µM (inactive). The GI50 (SNB-78) was > 100 µM (inactive), the GI50 (SR) was > 100 µM (inactive) and the GI50 (SW-620) was > 100 µM (inactive). The GI50 (TK-10) was > 100 µM (inactive), the GI50 (U-251) was > 100 µM (inactive) and the GI50 (UACC-257) was > 100 µM (inactive). The GI50 (UACC-62) was > 100 µM (inactive), the GI50 (UO-31) was > 100 µM (inactive) and the GI50 (XF498) was > 100 µM (inactive).
